We go through 26 molecules from PubChem BioAssay AID977613 (Broad Institute, 2014).

Each structure is given as a SMILES string. Activity calls are given as the source filed them. No rule for the calls is given here.

For the assay, the system named is Broad 7084-01 inhibitor HTS, set 2. The experiment in a line: single-concentration hits, screen 7084 set 2 (AID 977613).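 Also: host cells are infected with parasite promastigotes that become internalized.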

`COc1cccc(NC(=O)N2C[C@H](O)COC[C@H]3O[C@H](CC(=O)NC4CCC4)CC[C@@H]32)c1`: the active concentration is > 10 µM (inactive).

Turning to `O=C(NC1Cc2ccccc2C1)[C@H]1[C@H](CO)[C@H]2Cn3c(cccc3=O)[C@H]2N1C(=O)c1cnccn1`, the active concentration was > 10 µM (inactive).

As to `CCCC#Cc1ccc([C@@H]2[C@H]3CN(S(=O)(=O)c4ccccc4C)CC(=O)N3[C@H]2CO)cc1`, the active concentration was > 10 µM (inactive).

Take `COCC(=O)N1CC2(C1)CN(C(=O)NC1CCCC1)[C@H](CO)c1c2c2ccc(OC)cc2n1C`: the active concentration was > 10 µM (inactive).

Consider `COc1ccc2c3c(n(C)c2c1)[C@H](CO)N(CC1CCOCC1)CC31CCN(C(=O)CN(C)C)CC1`, for which the active concentration is > 10 µM (inactive).

With `Cc1cccc(S(=O)(=O)N2C[C@H](O)COC[C@@H]3O[C@H](CC(=O)Nc4ccccc4)CC[C@H]32)c1`, the active concentration is > 10 µM (inactive).

For the molecule `CCCNC(=O)N1CC2(C1)[C@H](c1ccccc1)[C@@H](CO)N2Cc1cccc(Cl)c1`, the active concentration was > 10 µM (inactive).

In the case of `O=C(c1cnccn1)N1CC(=O)N2[C@@H](CO)[C@H](c3ccc(C#CC4CC4)cc3)[C@@H]2C1`, the active concentration was > 10 µM (inactive).

Turning to `CCC(=O)N1[C@@H](CO)[C@@H]2c3ccccc3N(S(=O)(=O)c3ccccc3C)C[C@@H]21`, the active concentration was > 10 µM (inactive).

Turning to `COc1ccc2c3c(n(C)c2c1)[C@@H](CO)N(S(=O)(=O)c1ccc(C)cc1)CC31CN(C(=O)c2ccccn2)C1`, the active concentration is > 10 µM (inactive).

As for `COCC(=O)N1[C@H](CO)[C@@H](c2ccccc2-c2ccccc2F)[C@@H]1C#N`, the active concentration is below 10 µM.

`CN1C[C@H](O)COC[C@@H]2O[C@H](CC(=O)NC3CCCC3)CC[C@H]21`: the active concentration is > 10 µM (inactive).

For `C/C=C/c1ccc([C@@H]2[C@H](CO)N(C(=O)CC)C23CN(CCC(F)(F)F)C3)cc1`, the active concentration is > 10 µM (inactive).

As for `CN1C(=O)c2cc(NC(=O)c3cnccn3)ccc2OC[C@@H]2O[C@H](CC(=O)NCC3CCCCC3)CC[C@H]21`, the active concentration is > 10 µM (inactive).

As to `Cn1cnc(CCNC(=O)C[C@H]2CC[C@H]3[C@@H](COC[C@H](O)CN3C(=O)C3CC3)O2)c1`, the active concentration is > 10 µM (inactive).

In the case of `CC(C)NC(=O)N1C[C@@H]2[C@H](c3ccccc31)[C@@H](CO)N2Cc1ccccn1`, the active concentration is below 10 µM.

Turning to `CCC(=O)N1CC2(C1)[C@@H](c1ccc(-c3cccc(C)c3)cc1)[C@H](CO)N2S(C)(=O)=O`, the active concentration was > 10 µM (inactive).

In the case of `O=C(C[C@@H]1CC[C@@H]2[C@H](COC[C@@H](O)CN2Cc2cccc(C(F)(F)F)c2)O1)NCc1ccccc1`, the active concentration was > 10 µM (inactive).

Take `N#C[C@H]1[C@H](c2ccccc2-c2ccccc2F)[C@@H](CO)N1C(=O)C1CCC1`: the active concentration was > 10 µM (inactive).

Regarding `O=C(Nc1cc(F)ccc1F)N1CC(=O)N2[C@H](C1)[C@@H](c1ccc(/C=C/c3ccccc3)cc1)[C@@H]2CO`, the active concentration was > 10 µM (inactive).

As for `COc1ccc2c3c(n(C)c2c1)[C@@H](CO)N(CC1CCCC1)CC31CN(C(=O)Nc2ccccc2)C1`, the active concentration was > 10 µM (inactive).

For `CCS(=O)(=O)N1CC(=O)N2[C@@H](CO)[C@@H](c3ccc(C#CC4CCCCC4)cc3)[C@@H]2C1`, the active concentration was > 10 µM (inactive).

As to `CC(C)C#Cc1ccc([C@H]2[C@H](CO)N3C(=O)CN(C(=O)Cc4ccccc4)C[C@@H]23)cc1`, the active concentration is > 10 µM (inactive).

Take `C/C=C/c1ccc([C@@H]2[C@H](CO)N(S(=O)(=O)CC)C23CN(C(C)=O)C3)cc1`: the active concentration was > 10 µM (inactive).

For the molecule `COc1ccc2c3c([nH]c2c1)[C@H](CO)N(C(C)=O)CC31CN(Cc2ccccc2Cl)C1`, the active concentration is > 10 µM (inactive).

Regarding `COc1ccccc1CNC(=O)C[C@@H]1CC[C@@H]2[C@H](COC[C@H](O)CN2C(=O)Nc2ccccc2)O1`, the active concentration was > 10 µM (inactive).
